Experimental data: ChEMBL document CHEMBL4804283, “Stk19 inhibitors for treatment of cancer” (2020)
Activity calls are given as the source filed them. The rule behind the calls is not given here.

Columns and labels:
[1] = target: T1, Inactive serine/threonine-protein kinase 19 (Homo sapiens) (UniProt P49842); test: Inhibition of recombinant human STK19 assessed as NRAS phosphorylation at 1-3 uM relative to control
T1 sequence (whole entry): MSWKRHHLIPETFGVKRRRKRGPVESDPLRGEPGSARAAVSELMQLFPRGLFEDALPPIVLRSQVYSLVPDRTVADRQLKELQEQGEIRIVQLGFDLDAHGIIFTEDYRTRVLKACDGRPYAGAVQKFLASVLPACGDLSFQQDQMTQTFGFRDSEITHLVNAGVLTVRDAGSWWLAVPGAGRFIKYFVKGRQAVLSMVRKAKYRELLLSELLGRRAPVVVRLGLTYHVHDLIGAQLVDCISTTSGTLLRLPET

[2] = test system: T2, Inactive serine/threonine-protein kinase 19 (Homo sapiens), P49842 [D89N]; test: Inhibition of STK19 D89N mutant in human primary melanocytes at 0.1-3 uM relative to control; format: cell-based
T2 sequence (whole entry): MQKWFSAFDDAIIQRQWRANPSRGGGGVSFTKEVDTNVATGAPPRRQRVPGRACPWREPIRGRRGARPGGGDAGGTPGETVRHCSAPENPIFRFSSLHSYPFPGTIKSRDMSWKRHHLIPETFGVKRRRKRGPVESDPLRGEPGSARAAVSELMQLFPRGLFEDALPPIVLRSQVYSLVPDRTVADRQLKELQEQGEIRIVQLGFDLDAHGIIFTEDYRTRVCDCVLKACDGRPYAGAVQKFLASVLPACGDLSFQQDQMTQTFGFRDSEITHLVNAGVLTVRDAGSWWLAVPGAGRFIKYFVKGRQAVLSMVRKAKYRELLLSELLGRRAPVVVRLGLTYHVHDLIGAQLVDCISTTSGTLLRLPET

[3] = Toxicity in C57BL/6J mouse assessed as effect on aspartate aminotransferase level at 25 mg/kg, administered twice daily for 20 days; format: organism-based; conditions: in vivo, 480 h
[4] = Toxicity in C57BL/6J mouse assessed as effect on phosphorous level at 25 mg/kg, administered twice daily for 20 days; format: organism-based; conditions: in vivo, 480 h
hTERT [5] = test: Inhibition of colony formation in hTERT/p53DD/CDK4 (R24C) immortal melanocytes expressing wild-type STK19 at 3 uM relative to control; format: functional; conditions: Homo sapiens
hTERT [6] = test: Antiproliferative activity against hTERT/p53DD/CDK4 (R24C) immortal melanocytes expressing STK19 D89N mutant at 3 uM relative to control; format: functional, tissue-based; conditions: Homo sapiens
SK-MEL-2 [7] = test: Antitumor activity against human SK-MEL-2 cells xenografted in nude mouse assessed as tumor growth inhibition; format: functional
SK-MEL-2 [8] = test: Antitumor activity against human SK-MEL-2 cells xenografted in nude mouse assessed as induction of apoptosis at 25 mg/kg, administered for 21 days; format: functional, organism-based
[9] = test system: T2, Inactive serine/threonine-protein kinase 19 (Homo sapiens), P49842 [D89N]; test: Inhibition of STK19 in STK19-depleted human primary melanocytes expressing STK19 D89N mutant at 1-3 uM assessed as NRAS phosphorylation relative to control; format: tissue-based; conditions: Melanocyte
SK-MEL-2 [10] = test: Inhibition of G9a in nude mouse xenografted with human SK-MEL-2 cells assessed as decrease in H3K9 methylation at 25 mg/kg; format: functional, organism-based
[11] = target: T1, Inactive serine/threonine-protein kinase 19 (Homo sapiens); test: Inhibition of STK19 in human WM2032 cells expressing NRAS Q61R and wild-type BRAF at 1-3 uM assessed as NRAS signaling relative to control; format: cell-based
[12] = target: T1, Inactive serine/threonine-protein kinase 19 (Homo sapiens); test: Inhibition of STK19 in human SK-MEL-2 cells expressing NRAS Q61R and wild-type BRAF at 1-3 uM assessed as MEK-ERK signaling relative to control; format: cell-based
[13] = target: T1, Inactive serine/threonine-protein kinase 19 (Homo sapiens); test: Inhibition of STK19 in human WM2032 cells expressing NRAS Q61R and wild-type BRAF at 1-3 uM assessed as MEK-ERK signaling relative to control; format: cell-based
WM2032 = test: Induction of apoptosis in human WM2032 cells expressing NRAS Q61R and wild-type BRAF at 1-3 uM relative to control; format: functional, cell-based
[14] = target: T1, Inactive serine/threonine-protein kinase 19 (Homo sapiens); test: Inhibition of STK19 in human WM2032 cells expressing NRAS Q61R and wild-type BRAF at 300 nM assessed as NRAS phosphorylation relative to control; format: cell-based
[15] = target: T3, Histone-lysine N-methyltransferase EHMT2 (Homo sapiens) (UniProt Q96KQ7); test: Inhibition of G9a in human SK-MEL-2 cells expressing NRAS Q61R and wild-type BRAF at 100-300 nM relative to control; format: cell-based
T3 sequence (whole entry): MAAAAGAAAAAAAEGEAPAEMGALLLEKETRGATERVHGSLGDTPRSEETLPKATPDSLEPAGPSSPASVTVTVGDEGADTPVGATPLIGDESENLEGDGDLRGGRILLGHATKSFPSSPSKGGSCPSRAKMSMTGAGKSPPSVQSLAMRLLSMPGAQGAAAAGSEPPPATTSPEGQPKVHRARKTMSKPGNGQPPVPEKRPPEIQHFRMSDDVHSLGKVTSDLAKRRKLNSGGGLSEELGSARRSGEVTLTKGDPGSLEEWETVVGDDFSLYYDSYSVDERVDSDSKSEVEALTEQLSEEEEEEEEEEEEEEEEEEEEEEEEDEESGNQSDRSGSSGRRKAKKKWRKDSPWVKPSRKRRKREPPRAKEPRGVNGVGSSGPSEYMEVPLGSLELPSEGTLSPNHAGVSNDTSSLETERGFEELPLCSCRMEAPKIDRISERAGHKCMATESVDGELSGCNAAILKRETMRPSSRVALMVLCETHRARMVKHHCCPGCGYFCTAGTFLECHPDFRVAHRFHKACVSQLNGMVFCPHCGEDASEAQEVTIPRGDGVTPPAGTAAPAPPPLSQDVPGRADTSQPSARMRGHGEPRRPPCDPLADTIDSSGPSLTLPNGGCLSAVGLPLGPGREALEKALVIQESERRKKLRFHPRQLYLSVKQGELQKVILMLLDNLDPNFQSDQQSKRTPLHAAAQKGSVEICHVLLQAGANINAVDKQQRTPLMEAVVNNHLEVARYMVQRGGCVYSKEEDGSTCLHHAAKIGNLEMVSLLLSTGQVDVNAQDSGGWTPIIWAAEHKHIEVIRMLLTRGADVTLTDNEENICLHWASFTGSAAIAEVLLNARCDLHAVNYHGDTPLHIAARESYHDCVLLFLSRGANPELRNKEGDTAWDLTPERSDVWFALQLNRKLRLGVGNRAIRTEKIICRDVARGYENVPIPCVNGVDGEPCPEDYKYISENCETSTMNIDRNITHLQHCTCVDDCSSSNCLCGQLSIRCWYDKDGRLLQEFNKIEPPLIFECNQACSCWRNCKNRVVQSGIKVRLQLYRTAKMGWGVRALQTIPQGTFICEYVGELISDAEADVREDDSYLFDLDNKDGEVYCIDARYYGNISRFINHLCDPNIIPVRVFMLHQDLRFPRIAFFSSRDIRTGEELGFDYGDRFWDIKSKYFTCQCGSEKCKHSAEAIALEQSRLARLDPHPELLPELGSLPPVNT

[16] = target: T3, Histone-lysine N-methyltransferase EHMT2 (Homo sapiens); test: Inhibition of G9a in human WM2032 cells expressing NRAS Q61R and wild-type BRAF at 100-300 nM relative to control; format: cell-based

COc1cc2nc(NC3CC3)nc(NC3CCN(C(C)C)CC3)c2cc1OC.O=C(O)C(F)(F)F
Activity [1]: Active
inhibition [2]: Active
Activity [3]: Non-Toxic
Activity [4]: Non-Toxic
Activity (hTERT [5]): Active
Activity (hTERT [6]): Active
TGI (SK-MEL-2 [7]): Dose-Dependent Effect
Activity (SK-MEL-2 [8]): Active
inhibition [9]: Active
inhibition (SK-MEL-2 [10]): inactive
inhibition [11]: Active
inhibition [12]: Active
inhibition [13]: Active
Activity (WM2032): Active
inhibition [14]: Active
inhibition [15]: inactive
inhibition [16]: inactive
